From patent US4996211A, “Substituted dibenzocycloheptenimines” (Merck Sharp & Dohme Ltd., priority 1987, dated 1991)
Counter-ions that a name gives are not always drawn.

These molecules were tested on tonic seizures induced by N-methyl-DL-aspartic acid (NMDLA) (assay: Antagonism of NMDLA-induced tonic seizures in mice). Conditions: Mus musculus, iv; i.v. 15 min before s.c. NMDLA (500 mg/kg); groups of 8 mice, observed 30 min; probit analysis.
Type: in vivo, mouse (male Swiss-Webster)
Description: The compounds useful in this invention bind with a high affinity and in a reversible and saturable manner to membranes from rat brain cortex. In addition these compounds potently and selectively block responses to NMDA in a brain slice from rat cortex, and antagonise NMDA-induced seizures in the mouse.
Compounds of the invention were examined for their ability to antagonise tonic seizures induced by N-methyl-DL-aspartic acid (NMDLA). Groups of 8 male Swiss-Webster mice (25-30 g) were injected intravenously with the test compound at various doses, 15 min before s.c. administration of NMDLA (500 mg/kg). […] ED50 values for the antagonism of the NMDLA induced tonic seizures were determined using probit analysis.
Cc1ccc2c(c1)C1(C)NC2Cc2ccccc21 (stereo not shown) [Example 1, 5,7-Dimethyl-10.11-dihydro-5H-dibenzo[a,d]cyclohepten-5,10-imine] showed an ED50 of under 10 mg/kg.
Cc1ccc2c(c1)C1(C)NC(C2)c2ccccc21 (stereo not shown) [Example 2, 3.5-Dimethyl-10,11-dihYdro-5H-dibenzo[a,d]cyclohepten-5,10-imine] showed an ED50 of under 10 mg/kg.
CC12NC(Cc3ccc(-c4ccccc4)cc31)c1ccccc12 (stereo not shown) [Example 6, 5-Methyl-3-phenyl-10,11-dihydro-5H-dibenzo-[a,d]cyclohepten-5,10-imine hydrochloride] gave an ED50 of under 10 mg/kg.
CC12NC(Cc3ccc(CO)cc31)c1ccccc12 (stereo not shown) [Example 12, 3-HYdroxymethyl-5-methyl-10,11-dihydro-5H-dibenzo-[a,d]cyclohepten-5,10-imine] was tested, and the ED50 was under 10 mg/kg.
